Measurements taken from patent publication US11111243B2, “Azaindole compounds as histone methyltransferase inhibitors” (GLOBAL BLOOD THERAPEUTICS, INC., priority 2017, dated 2021).
Counter-ions that a name gives are not always drawn.

biological target: T1, G9a (Homo sapiens, UniProt Q96KQ7); assay: G9a AlphaLISA enzymatic activity assay; format: biochemical; settings: 0.15 nM G9a, 10 uM S-adenosyl-methionine, 100 nM biotinylated histone 3 peptide (1-21), 1 h room temperature
T1 sequence (Q96KQ7 1-1210): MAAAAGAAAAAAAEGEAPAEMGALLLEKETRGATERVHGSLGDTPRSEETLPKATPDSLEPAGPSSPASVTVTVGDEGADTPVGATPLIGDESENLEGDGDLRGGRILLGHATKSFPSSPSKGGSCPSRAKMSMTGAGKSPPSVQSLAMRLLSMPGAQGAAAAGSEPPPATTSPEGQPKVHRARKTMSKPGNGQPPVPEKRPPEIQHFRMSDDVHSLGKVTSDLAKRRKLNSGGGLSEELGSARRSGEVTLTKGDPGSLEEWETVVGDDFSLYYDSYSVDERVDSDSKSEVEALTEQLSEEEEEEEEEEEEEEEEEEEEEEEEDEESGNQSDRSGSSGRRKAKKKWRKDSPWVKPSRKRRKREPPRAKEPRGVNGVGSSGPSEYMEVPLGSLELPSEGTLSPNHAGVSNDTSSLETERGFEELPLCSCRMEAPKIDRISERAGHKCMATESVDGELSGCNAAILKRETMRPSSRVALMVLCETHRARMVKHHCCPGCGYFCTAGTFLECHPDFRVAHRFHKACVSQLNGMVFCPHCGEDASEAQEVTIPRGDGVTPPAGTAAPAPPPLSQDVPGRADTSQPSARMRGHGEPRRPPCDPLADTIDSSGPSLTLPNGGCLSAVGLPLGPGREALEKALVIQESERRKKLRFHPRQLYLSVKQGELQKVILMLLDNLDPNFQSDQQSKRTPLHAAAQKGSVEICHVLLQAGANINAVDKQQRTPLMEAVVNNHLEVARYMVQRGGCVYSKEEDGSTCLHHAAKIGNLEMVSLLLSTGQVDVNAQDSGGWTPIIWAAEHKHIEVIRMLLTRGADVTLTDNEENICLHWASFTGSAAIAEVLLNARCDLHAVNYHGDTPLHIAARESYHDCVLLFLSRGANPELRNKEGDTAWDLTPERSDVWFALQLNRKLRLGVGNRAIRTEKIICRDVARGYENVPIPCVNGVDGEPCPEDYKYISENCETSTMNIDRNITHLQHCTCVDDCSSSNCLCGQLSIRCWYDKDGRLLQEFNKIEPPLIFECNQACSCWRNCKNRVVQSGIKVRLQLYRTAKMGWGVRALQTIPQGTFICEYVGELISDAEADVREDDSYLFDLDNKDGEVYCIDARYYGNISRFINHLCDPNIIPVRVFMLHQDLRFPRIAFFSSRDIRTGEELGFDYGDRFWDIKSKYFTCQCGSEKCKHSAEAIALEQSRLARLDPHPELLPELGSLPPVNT
Excerpt: The G9a AlphaLISA assay was used to detect the methyl modifications of a biotinylated histone H3 peptide by the compounds. These modifications are done by the histone methyl transferase activity of the G9a enzyme. The assay consists of reading a chemiluminescent signal at 615 nm; this signal is generated by a laser excitation at 680 nm that transfers a reactive singlet oxygen between the donor beads and acceptor beads. Donor beads are streptavidin conjugated and bind to the biotin on the peptide. Acceptor beads are conjugated with an antibody that recognizes the specific G9a methyl mark on the peptide. If there is a methyl mark on the peptide, the acceptor beads will bind to the peptide. Upon binding, the acceptor beads will be in close proximity (<200 nm) of the donor beads and when the donor beads are excited, the transfer of the oxygen can occur and a strong signal will be generated. If there is no methyl mark, the interaction between beads will not occur and signal will be at background levels.
For the assay, the following buffer was used to set up reactions: 50 mM Tris-HCl pH9, 50 mM NaCl, 0.01% Tween-20 and 1 mM DTT (added fresh prior to starting the reactions). The assay is set up by adding a final concentration of 0.15 nM G9a, 10 uM S-adenosyl-methionine and, 100 nM biotinylated histone 3 peptide (1-21). The reaction is incubated at room temperature for 1 h, and subsequently quenched by the addition of the acceptor beads (anti-H3k9me2 AlphaLISA acceptor beads, PerkinElmer #AL117) at a final concentration of 20 ug/mL. The acceptor beads are incubated for 1 h. After 1 h, the donor beads are added at a final concentration of 20 ug/mL (Alpha Streptavidin donor beads, PerkinElmer #6760002). Donor beads are incubated for 0.5 h. Both donor and acceptor beads are resuspended in AlphaLISA 5× Epigenetics Buffer 1 Kit (PerkinElmer #AL008) prior to addition to the reaction. All manipulations and incubations with the donor and acceptor beads are done in subdued light. Signal is detected in an EnVision plate reader in Alpha mode (See ACS Med Chem Lett. 2014 Jan. 2; 5(2):205-9)
Percent inhibition was calculated for each compound dilution and the concentration that produced 50% inhibition was calculated. This value is presented as the IC50.

| Structure (SMILES) | IC50 [nM] |
| --- | --- |
| COc1cc2c(cc1OCCCN1CCCC1)[nH]c1ccncc12 [Compound 6, 1-[3-({8-methoxy-5H-pyrido[4,3-b]indol-7-yl}oxy)propyl]pyrrolidine] | 3.2 |
| COc1cc2c(cc1OCCCN1CCCC1)[nH]c1ncccc12 [Compound 7, 1-[3-({6-methoxy-9H-pyrido[2,3-b]indol-7-yl}oxy)propyl]pyrrolidine] | 280 |
| COc1cc2c(cc1OCCCN1CCCC1)[nH]c1cc(N)ncc12 [Compound 8, 8-methoxy-7-[3-(pyrrolidin-1-yl)propoxy]-5H-pyrido[4,3-b]indol-3-amine] | 5.3 |
| COc1cc2c(cc1OCCCN1CCCC1)[nH]c1ccnc(F)c12 [Compound 9, 1-[3-({1-fluoro-8-methoxy-5H-pyrido[4,3-b]indol-7-yl}oxy)propyl]pyrrolidine] | 590 |
| COc1cc2c(cc1OCCCN1CCCC1)[nH]c1cc(N)nc(C)c12 [Compound 10, 8-methoxy-1-methyl-7-[3-(pyrrolidin-1-yl)propoxy]-5H-pyrido[4,3-b]indol-3-amine] | 4.5 |
| COc1cc2c(cc1OCCCN1CCCC1)[nH]c1ccnc(N3CC[C@H](O)C3)c12 [Compound 11, (3S)-1-{8-methoxy-7-[3-(pyrrolidin-1-yl)propoxy]-5H-pyrido[4,3-b]indol-1-yl}pyrrolidin-3-ol] | 8.2 |
| COc1cc2c(cc1OCCCN1CCCC1)[nH]c1ccnc(C3CC3)c12 [Compound 12, 1-[3-({1-cyclopropyl-8-methoxy-5H-pyrido[4,3-b]indol-7-yl}oxy)propyl]pyrrolidine] | 1 to 3 |
| COc1cc2c(cc1OCCCN1CCCC1)[nH]c1ccnc(N3CC[C@@H](O)C3)c12 [Compound 13, (3R)-1-{8-methoxy-7-[3-(pyrrolidin-1-yl)propoxy]-5H-pyrido[4,3-b]indol-1-yl}pyrrolidin-3-ol] | 34 |
| COC[C@H](C)Nc1nccc2[nH]c3cc(OCCCN4CCCC4)c(OC)cc3c12 [Compound 14, 8-methoxy-N-[(2S)-1-methoxypropan-2-yl]-7-[3-(pyrrolidin-1-yl)propoxy]-5H-pyrido[4,3-b]indol-1-amine] | 6.5 |
| COc1cc2c(cc1OCCCN1CCCC1)[nH]c1ccnc(N3CCCC3)c12 [Compound 15, 1-{8-methoxy-7-[3-(pyrrolidin-1-yl)propoxy]-5H-pyrido[4,3-b]indol-1-yl}pyrrolidine] | 3.3 |
| COc1cc2c(cc1OCCCN1CCCC1)[nH]c1ccnc(N3CCC(O)CC3)c12 [Compound 16, 1-{8-methoxy-7-[3-(pyrrolidin-1-yl)propoxy]-5H-pyrido[4,3-b]indol-1-yl}piperidin-4-ol] | 61 |
| COc1cc2c(cc1OCCCN1CCCC1)[nH]c1ccnc(N3CCOCC3)c12 [Compound 17, 4-{8-methoxy-7-[3-(pyrrolidin-1-yl)propoxy]-5H-pyrido[4,3-b]indol-1-yl}morpholine] | 370 |
| COc1cc2c(cc1OCCCN1CCCC1)[nH]c1ccnc(N3CC(O)C3)c12 [Compound 18, 1-{8-methoxy-7-[3-(pyrrolidin-1-yl)propoxy]-5H-pyrido[4,3-b]indol-1-yl}azelidin-3-ol] | 12 |
| COc1cc2c(cc1OCCCN1CCCC1)[nH]c1ccnc(N3CC4CCC(C3)O4)c12 [Compound 19, 3-{8-methoxy-7-[3-(pyrrolidin-1-yl)propoxy]-5H-pyrido[4,3-b]indol-1-yl}-8-oxa-3-azabicyclo[3.2.1]octane] | 300 |
| CCOCCNc1nccc2[nH]c3cc(OCCCN4CCCC4)c(OC)cc3c12 [Compound 20, N-(2-ethoxyethyl)-8-methoxy-7-[3-(pyrrolidin-1-yl)propoxy]-5H-pyrido[4,3-b]indol-1-amine] | 7 |
| CCCc1nccc2[nH]c3cc(OCCCN4CCCC4)c(OC)cc3c12 [Compound 21, 1-[3-({8-methoxy-1-propyl-5H-pyrido[4,3-b]indol-7-yl}oxy)-propyl]pyrrolidine] | 3.3 |
| COc1cc2c(cc1OCCCN1CCCC1)[nH]c1ncncc12 [Compound 22, 1-[3-({6-methoxy-9H-pyrimido-[4,5-b]indol-7-yl}oxy)propyl]-pyrrolidine] | 570 |
| COc1cc2c(cc1OCCCN1CCCC1)[nH]c1ccnc(-c3ccncc3)c12 [Compound 23, 8-methoxy-1-(pyridin-4-yl)-7-(3-(pyrrolidin-1-yl)propoxy)-5H-pyrido[4,3-b]indole] | 100 |
| COc1cc2c(cc1OCCCN1CCCC1)[nH]c1ccnc(-c3cccnc3)c12 [Compound 24, 8-methoxy-1-(pyridin-3-yl)-7-(3-(pyrrolidin-1-yl)propoxy)-5H-pyrido[4,3-b]indole] | 93 |
| COc1cc2c(cc1OCCCN1CCCC1)[nH]c1ccnc(-c3ccccn3)c12 [Compound 25, 8-methoxy-1-(pyridin-2-yl)-7-(3-(pyrrolidin-1-yl)propoxy)-5H-pyrido[4,3-b]indole] | 140 |
| COc1c(OCCCN2CCCC2)ccc2c1[nH]c1cccnc12 [Compound 26, 1-[3-({6-methoxy-5H-pyrido[3,2-b]indol-7-yl}oxy)propyl]pyrrolidine hydrochloride] | 250 |
| COc1cc2c(cc1OCCCN1CCCC1)[nH]c1cccnc12 [Compound 27, 1-[3-({8-methoxy-5H-pyrido[3,2-b]indol-7-yl}oxy)propyl]pyrrolidine hydrochloride] | 150 |
| COc1cc2c(cc1OCCCN1CCCC1)[nH]c1cnccc12 [Compound 28, 1-[3-({6-methoxy-9H-pyrido[3,4-b]indol-7-yl}oxy)propyl]pyrrolidine hydrochloride] | 60 |
| COc1cc2c(cc1OCCCN1CCCC1)[nH]c1ccnc(C)c12 [Compound 29, 1-[3-({8-methoxy-1-methyl-5H-pyrido[4,3-b]indol-7-yl}oxy)propyl]pyrrolidine hydrochloride] | 1.2 |
| COc1cc2c(cc1OCCCN1CCCC1)[nH]c1ccncc12 [Compound 31, 1-[3-({8-methoxy-5H-pyrido[4,3-b]indol-7-yl}oxy)propyl]pyrrolidine hydrochloride] | 3.6 |
| COc1cc2c(cc1OCCCN1CCCC1)[nH]c1nc(N)ccc12 [Compound 33, 6-methoxy-7-[3-(pyrrolidin-1-yl)propoxy]-9H-pyrido[2,3-b]indol-2-amine hydrochloride] | 320 |
| COc1cc2c(cc1OCCCN1CCCC1)[nH]c1ccnc(N3CCCC3)c12 [Compound 39, 1-{8-methoxy-7-[3-(pyrrolidin-1-yl)propoxy]-5H-pyrido[4,3-b]indol-1-yl}pyrrolidine] | 5.7 |
| COc1cc2c(cc1OCCCN1CCCC1)[nH]c1ccnc(C3CC3)c12 [Compound 43, 1-[3-({1-cyclopropyl-8-methoxy-5H-pyrido[4,3-b]indol-7-yl}oxy)propyl]pyrrolidine] | 1.3 |
| COc1cc2c(cc1OCCCN1CCCC1)[nH]c1cncnc12 [Compound 44, 1-[3-({8-methoxy-5H-pyrimido[5,4-b]indol-7-yl}oxy)propyl]pyrrolidine] | 170 |
